Eight compounds from ChEMBL document CHEMBL1123856, “Synthesis and biological activities of arginine-vasopressin analogues with 4-hydroxyproline in position 7” (1987) can be followed below.

Positions of bridges follow the written chain, without caps; N, C: chain ends. Non-standard residues stand in square brackets, D forms with d. Residues, ends and D or L forms follow the SMILES beside them. NMeA = CN[C@@H](C)C(=O)O; Mpa = O=C(O)CCS

The species named for assay [1] is Rattus norvegicus. Nature of the assay: Uterine activity was meseared in isolated rat uterus in solutions in the absence No Mg2+ 0.5 mM in vitro. In kind it is functional.
The subject of assay [2] is Rattus norvegicus. Nature of the assay: Pressor activity on urethane-anesthetized, phenoxybenzamine-treated rat. In kind it is functional.
The subject of assay [3] is Rattus norvegicus. Nature of the assay: Antidiuretic activity on water loaded, ethanol-anesthetized rat. In kind it is functional, Urine.
Assay [4] is filed under the species Rattus norvegicus. Nature of the assay: Uterine activity was meseared in isolated rat uterus in solutions in the presence Mg2+ 0.5 mM in vitro. In kind it is functional.

`NC(=O)CC[C@@H]1NC(=O)[C@H](Cc2ccccc2)NC(=O)[C@H](Cc2ccc(O)cc2)NC(=O)CCSSC[C@@H](C(=O)N2CC=C[C@H]2C(=O)N[C@@H](CCCN=C(N)N)C(=O)NCC(N)=O)NC(=O)[C@H](CC(N)=O)NC1=O` yielded a Uterine activity in the assay listed under Rattus norvegicus [1] of 69 units/mg. For the same compound, the Pressor activity with Rattus norvegicus [2] was determined as 240 units/mg. Besides, the Antidiuretic activity with Rattus norvegicus [3] worked out at 4130 units/mg.
Turning to `CC(C)C[C@H](NC(=O)[C@@H]1CSSC[C@H](N)C(=O)N[C@@H](Cc2ccc(O)cc2)C(=O)N[C@@H](Cc2ccccc2)C(=O)N[C@@H](CCC(N)=O)C(=O)N[C@@H](CC(N)=O)C(=O)N1)C(=O)N[C@@H](CCCN=C(N)N)C(=O)NCC(N)=O` (H-CYFQNCLRG-NH2; disulfide 1-6), the Antidiuretic activity in the assay on Rattus norvegicus [3] was 19 units/mg.
For `C[C@@H](C(=O)N[C@@H](CCCN=C(N)N)C(=O)NCC(N)=O)N(C)C(=O)[C@@H]1CSSCCC(=O)N[C@@H](Cc2ccc(O)cc2)C(=O)N[C@@H](Cc2ccccc2)C(=O)N[C@@H](CCC(N)=O)C(=O)N[C@@H](CC(N)=O)C(=O)N1` ([Mpa]YFQNC[NMeA]RG-NH2; disulfide 1-6), the figures for the Uterine activity in the assay filed under Rattus norvegicus [1] and in the assay filed under Rattus norvegicus [4] were 2 units/mg and 8 IU/mg, respectively. The same compound gave a Pressor activity with Rattus norvegicus [2] of 1 units/mg. Further, in the assay with Rattus norvegicus [3], the Antidiuretic activity came out at 113 units/mg.
In the same order, the values of `NC(=O)CC[C@@H]1NC(=O)[C@H](Cc2ccccc2)NC(=O)[C@H](Cc2ccc(O)cc2)NC(=O)[C@@H](N)CSSC[C@@H](C(=O)N2C[C@H](O)C[C@H]2C(=O)N[C@@H](CCCN=C(N)N)C(=O)NCC(N)=O)NC(=O)[C@H](CC(N)=O)NC1=O` (stereo in doubt; form 1) are 73 units/mg, 268 IU/mg, 4 units/mg and 712 units/mg.
In the same order, the values of `NC(=O)CC[C@@H]1NC(=O)[C@H](Cc2ccccc2)NC(=O)[C@H](Cc2ccc(O)cc2)NC(=O)[C@@H](N)CSSC[C@@H](C(=O)N2C[C@H](O)C[C@H]2C(=O)N[C@@H](CCCN=C(N)N)C(=O)NCC(N)=O)NC(=O)[C@H](CC(N)=O)NC1=O` (stereo in doubt; form 2) are 225 units/mg, 285 IU/mg, 1 units/mg and 780 units/mg.
As to `NC(=O)CC[C@@H]1NC(=O)[C@H](Cc2ccccc2)NC(=O)[C@H](Cc2ccc(O)cc2)NC(=O)[C@@H](N)CSSC[C@@H](C(=O)N2C[C@H](O)C[C@H]2C(=O)N[C@@H](CCCN=C(N)N)C(=O)NCC(N)=O)NC(=O)[C@H](CC(N)=O)NC1=O` (stereo in doubt; form 3), the Uterine activity was 63 units/mg in the assay filed under Rattus norvegicus [1] and 176 IU/mg in the assay filed under Rattus norvegicus [4]. In the assay on Rattus norvegicus [2], this compound gave a Pressor activity of 8 units/mg. The Antidiuretic activity in the assay on Rattus norvegicus [3] came out at 614 units/mg.
Regarding `N=C(N)NCCC[C@@H](NC(=O)[C@@H]1CCCN1C(=O)[C@@H]1CSSCCC(=O)N[C@@H](Cc2ccc(O)cc2)C(=O)N[C@@H](Cc2ccccc2)C(=O)N[C@@H](CCC(N)=O)C(=O)N[C@@H](CC(N)=O)C(=O)N1)C(=O)NCC(N)=O` [DESMOPRESSIN], in the assay listed under Rattus norvegicus [1], the Uterine activity is 28 units/mg. Besides, the Pressor activity in the assay with Rattus norvegicus [2] was 346 units/mg. This compound also displayed an Antidiuretic activity in the assay with Rattus norvegicus [3] of 1740 units/mg.
Turning to `N=C(N)NCCC[C@H](NC(=O)[C@@H]1CCCN1C(=O)[C@@H]1CSSC[C@H](N)C(=O)N[C@@H](Cc2ccc(O)cc2)C(=O)N[C@@H](Cc2ccccc2)C(=O)N[C@@H](CCC(N)=O)C(=O)N[C@@H](CC(N)=O)C(=O)N1)C(=O)NCC(N)=O` [VASOPRESSIN], in the assay filed under Rattus norvegicus [1], the Uterine activity amounted to 12 units/mg. In the assay with Rattus norvegicus [3], this compound had an Antidiuretic activity of 323 units/mg.
